The text below walks through data of the NIST ThermoML archive (doi:10.1021/acs.jced.5b00737).

± gives the expanded uncertainty stated by the source.

The conditions of this data set: 298.15 K; Liquid; Gas chromatography.

For the compound `c1ccc(C2(N3CCCCC3)CCCCC2)cc1` [1-(1-phenylcyclohexyl)piperidine], the “vapor or sublimation pressure” value turned out to be 3e-05 ± 1.2e-05 kPa.
For the compound `CC(Cc1ccc(C(C)(C)C)cc1)CN1CCCCC1` (configuration not stated) [1-(3-(4-(tert-butyl)phenyl)-2-methylpropyl)piperidine], the “vapor or sublimation pressure” value is 1.6e-05 ± 8e-06 kPa.

Usually vapor or sublimation pressure stands for the pressure of vapour in equilibrium with the condensed phase.
